Laboratory results taken from ChEMBL document CHEMBL3885861, “Open TG-GATES”.

Organism: Rattus norvegicus
Assay: Open TG-GATES - Regimen: Single
Format: toxicity, organism-based, Sprague-Dawley
Parameters: regimen Single, gender Male, age 6 weeks
Conditions: in vivo, po, 75 mg/kg, route gavage, dose level High; for APTT / Bas / Eos / Fbg / Hb / Ht / Lym / MCH / MCHC / MCV / Mono / Neu / PT / Plat / RBC / Ret / WBC: tissue Blood; for KIDNEY_L / KIDNEY_R / KIDNEY_TOTAL: tissue Kidney; for LIVER: tissue Liver; for A/G / ALP / ALT / AST / BUN / CRE / Ca / Cl / DBIL / GLC / IP / K / LDH / Na / PL / RALB / TBIL / TC / TG / TP / gamma-GTP: tissue Plasma

## NC1=NC(=O)C(c2ccccc2)O1 (configuration not stated) [PEMOLINE]
3 h
  TERMINAL_BW: 208.2 g
  APTT: 16.9 s
  Bas: 0%
  Eos: 0.8%
  Fbg: 306.8 mg/dL
  Hb: 13.3 g/dL
  Ht: 39.3%
  Lym: 74.8%
  MCH: 21.9 pg
  MCHC: 33.9%
  MCV: 64.8 fL
  Mono: 2.6%
  Neu: 20.8%
  PT: 13.3 s
  Plat: 129.3 x10_4/uL
  RBC: 606.8 x10_4/ul
  Ret: 9.4%
  WBC: 99.2 x10_2/uL
  KIDNEY_L: 0.9 g
  KIDNEY_R: 0.9 g
  KIDNEY_TOTAL: 1.7 g
  LIVER: 8.9 g
  A/G: 1
  ALP: 1509.8 IU/L
  ALT: 46.4 IU/L
  AST: 87.6 IU/L
  BUN: 7.8 mg/dL
  CRE: 0.2 mg/dL
  Ca: 10.4 mg/dL
  Cl: 108.2 meq/L
  DBIL: 0.012 mg/dL
  GLC: 188.6 mg/dL
  IP: 8.2 mg/dL
  K: 3.7 meq/L
  LDH: 74.6 IU/L
  Na: 141.6 meq/L
  PL: 132.8 mg/dL
  RALB: 2.8 g/dL
  TBIL: 0.042 mg/dL
  TC: 80 mg/dL
  TG: 36.8 mg/dL
  TP: 5.5 g/dL
  gamma-GTP: 1.8 IU/L
6 h
  TERMINAL_BW: 208.1 g
  APTT: 17.1 s
  Bas: 0%
  Eos: 1%
  Fbg: 280.8 mg/dL
  Hb: 13.6 g/dL
  Ht: 40.2%
  Lym: 75.2%
  MCH: 22 pg
  MCHC: 33.9%
  MCV: 64.9 fL
  Mono: 3%
  Neu: 20%
  PT: 13.6 s
  Plat: 118.6 x10_4/uL
  RBC: 620.2 x10_4/ul
  Ret: 9.3%
  WBC: 89.6 x10_2/uL
  KIDNEY_L: 0.9 g
  KIDNEY_R: 0.9 g
  KIDNEY_TOTAL: 1.8 g
  LIVER: 7.6 g
  A/G: 1
  ALP: 1507.8 IU/L
  ALT: 40.6 IU/L
  AST: 104.8 IU/L
  BUN: 9 mg/dL
  CRE: 0.2 mg/dL
  Ca: 10.3 mg/dL
  Cl: 108.4 meq/L
  DBIL: 0.01 mg/dL
  GLC: 168.8 mg/dL
  IP: 9.3 mg/dL
  K: 3.7 meq/L
  LDH: 110.8 IU/L
  Na: 140.8 meq/L
  PL: 119 mg/dL
  RALB: 2.7 g/dL
  TBIL: 0.05 mg/dL
  TC: 77.4 mg/dL
  TG: 14 mg/dL
  TP: 5.4 g/dL
  gamma-GTP: 1 IU/L
9 h
  TERMINAL_BW: 209.6 g
  APTT: 17.2 s
  Bas: 0%
  Eos: 0.6%
  Fbg: 330.2 mg/dL
  Hb: 13.7 g/dL
  Ht: 40.1%
  Lym: 71.6%
  MCH: 22.2 pg
  MCHC: 34.2%
  MCV: 65 fL
  Mono: 2.2%
  Neu: 25%
  PT: 13.1 s
  Plat: 113 x10_4/uL
  RBC: 617.8 x10_4/ul
  Ret: 9.2%
  WBC: 80.9 x10_2/uL
  KIDNEY_L: 0.9 g
  KIDNEY_R: 0.9 g
  KIDNEY_TOTAL: 1.8 g
  LIVER: 7.3 g
  A/G: 1
  ALP: 1405.6 IU/L
  ALT: 34.4 IU/L
  AST: 89 IU/L
  BUN: 9 mg/dL
  CRE: 0.2 mg/dL
  Ca: 10.3 mg/dL
  Cl: 107.8 meq/L
  DBIL: 0.01 mg/dL
  GLC: 190.4 mg/dL
  IP: 10.4 mg/dL
  K: 3.5 meq/L
  LDH: 82 IU/L
  Na: 141.2 meq/L
  PL: 122.2 mg/dL
  RALB: 2.9 g/dL
  TBIL: 0.044 mg/dL
  TC: 75.6 mg/dL
  TG: 9.4 mg/dL
  TP: 5.7 g/dL
  gamma-GTP: 1.2 IU/L
24 h
  TERMINAL_BW: 200.9 g
  APTT: 15.7 s
  Bas: 0%
  Eos: 1%
  Fbg: 324.8 mg/dL
  Hb: 13.3 g/dL
  Ht: 38.1%
  Lym: 78.8%
  MCH: 21.9 pg
  MCHC: 34.8%
  MCV: 62.9 fL
  Mono: 2.2%
  Neu: 17.6%
  PT: 13.1 s
  Plat: 112.1 x10_4/uL
  RBC: 606.6 x10_4/ul
  Ret: 8.5%
  WBC: 84.2 x10_2/uL
  KIDNEY_L: 0.9 g
  KIDNEY_R: 0.9 g
  KIDNEY_TOTAL: 1.9 g
  LIVER: 8.6 g
  A/G: 1
  ALP: 1471 IU/L
  ALT: 40.8 IU/L
  AST: 92.6 IU/L
  BUN: 14 mg/dL
  CRE: 0.2 mg/dL
  Ca: 10.6 mg/dL
  Cl: 104.8 meq/L
  DBIL: 0.014 mg/dL
  GLC: 177.6 mg/dL
  IP: 8.6 mg/dL
  K: 4.1 meq/L
  LDH: 66.2 IU/L
  Na: 141.4 meq/L
  PL: 127.6 mg/dL
  RALB: 2.7 g/dL
  TBIL: 0.038 mg/dL
  TC: 80.4 mg/dL
  TG: 38.2 mg/dL
  TP: 5.4 g/dL
  gamma-GTP: 1 IU/L
